Experiment: Applicant's experiments with FITC on liposomes (immunostimulant / detectable marker)
Settings: reagent attached to liposome exterior

fluorescein isothiocyanate [FITC]
function as immunostimulant and detectable marker: serves as both an immunostimulant and a detectable marker

Reference: US20230000997A1, “PROCESSES OF PREPARING POLYGLUTAMATED ANTIFOLATES AND USES OF THEIR COMPOSITIONS” (L.E.A.F. HOLDINGS GROUP LLC, priority 2019, published 2023)
